The values below come from publication PMC2809336, “Antidepressant Interactions with the NMDA NR1-1b Subunit” (Journal of Biophysics, 2008).

“Also recorded” adds a separate entry of the source.

Format in all cases: binding
Test [1] addresses T1, NMDA NR1-1b S1S2 domain (Rattus norvegicus, UniProt P35439).
T1 construct: (His)8-TSG-LVPRG(thrombin cut site)-S1(394-544)-GT-S2(663-800); (His)8-TSG-LVPRG (His8 tag with thrombin cut site) (N); made in house; host or cells: E. coli Origami B(DE3)
In words: Kd determination by intrinsic tryptophan fluorescence (double reciprocal, Benesi-Hildebrand plot). The note with it: 5.29 μM NR1-1b S1S2, buffer 3 pH 6.5, 25°C, error at 95% confidence level. As to the method: (§1) Intrinsic fluorescence studies were performed in a Cary Eclipse fluorometer at 25°C. All emission scans were acquired from 300 to 400 nm upon excitation at 290 nm, with 10 nm excitation and emission slit widths in a 10 mm-path-length cell. Excitation was performed at 290 nm to minimize interference from both tyrosine residues in the NMDA NR1-1b S1S2 domain as well as the aromatic antidepressants being studied. Before data acquisition, samples were incubated for thirty seconds in the sample holder at 25°C. […] Thus, data was reported without a buffer subtraction.
Protein samples were at a final concentration of 5.29 μM in buffer 3 (10 mM MES, pH 6.5, 25 mM NaCl, 1 mM glycine). All antidepressants were solubilized in 100% methanol to the highest attainable concentrations. To account for any effects methanol had on fluorescence intensity, protein spectra with methanol were collected, allowing direct comparison between samples with and without antidepressant. Each data set consisted of at least three independent emission spectra of identically prepared samples. The data is reported with error determined at the 95% confidence level.
A double reciprocal plot was used to determine Kd, which derives from the Benesi-Hildebrand relationship, provided there is a 1 : 1 binding stoichiometry. […] When 1/ΔF is plotted against 1/[L], a linear relationship exists. The intercept on the x-axis is − K d.. […]

Test [2] concerns the target T1, NMDA NR1-1b S1S2 domain. In words: Intrinsic tryptophan fluorescence quenching and λ max of emission. To be noted: for Binding to NR1-1b S1S2 by intrinsic tryptophan fluorescence: desipramine, trimipramine, imipramine 137 μM, maprotiline 3.18 mM, nortriptyline 2.08 mM, paroxetine 3.75 mM, sertraline 1.88 mM, fluvoxamine 2.81 mM; for λ max of the NR1-1b drug bound complex: excitation 290 nm, 25°C, apo 326.24 nm, drug at final quenching concentration; for Binding to NR1-1b S1S2 in intrinsic and extrinsic fluorescence assays: concentrations as high as 5.21 mM. As to the method: as §1
All antidepressants were solubilized in 100% methanol to the highest attainable concentrations. To account for any effects methanol had on fluorescence intensity, protein spectra with methanol were collected, allowing direct comparison between samples with and without antidepressant. Each data set consisted of at least three independent emission spectra of identically prepared samples. The data is reported with error determined at the 95% confidence level.
The fluorescence intensity of the NR1-1b S1S2 domain was determined in the presence and absence of eachantidepressant with the appropriate blank subtraction. […] For all samples, the final concentration of methanol was kept at 1.8%.

For test [3], the target named is T1, NMDA NR1-1b S1S2 domain. In words: Stern-Volmer analysis, acrylamide quenching of tryptophan fluorescence. The note with it: acrylamide 16.3 to 113.9 mM, 5.29 μM NR1-1b S1S2 premixed with antidepressant; apo 1.61. The source says:
Plots of (F 0/F) −1 versus acrylamide concentration were constructed.

The target of test [4] is T1, NMDA NR1-1b S1S2 domain. In words: Extrinsic ANS fluorescence. To be noted: ANS 1 : 1 with 5.29 μM NR1-1b S1S2, excitation 380 nm; drug concentrations as in Figure 4. As to the method: Extrinsic fluorescence studies were performed in a Cary Ec-lipse fluorometer at 25°C. All emission scans were acquired from 400 to 600 nm after excitation at 380 nm with 20 nm slit widths for emission and excitation in a 10 mm-path-length cell. Before data acquisition, samples were incubated for thirty seconds in the sample holder at 25°C. Blanks were collected both for the antidepressants and the NR1-1b S1S2 domain. Three emission spectra of identicallyprepared samples were averaged for each plot. 8-Anilino-1-naphthalenesulfonic acid (ANS, TCI America), in a 1 : 1 molar ratio, was added to 5.29 μM of the NR1-1b S1S2 domain premixed with antidepressant (at final concentrations as above for intrinsic quenching studies in addition to the SSRIs fluoxetine (8.62 μM) and fluvoxamine (2.81 mM) and the SNRI venlafaxine (29.07 μM)). As with all intrinsic assays, total methanol concentration was kept at 1.8%. Plots of intensity versus wavelength were constructed from averaged emission spectra.

T1 sequence (P35439 394-544): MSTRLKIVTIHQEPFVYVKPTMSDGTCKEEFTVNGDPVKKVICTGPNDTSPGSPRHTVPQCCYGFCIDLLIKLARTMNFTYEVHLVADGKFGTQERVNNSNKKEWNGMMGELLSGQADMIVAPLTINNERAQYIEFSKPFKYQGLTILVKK
T1 sequence (P35439 663-800): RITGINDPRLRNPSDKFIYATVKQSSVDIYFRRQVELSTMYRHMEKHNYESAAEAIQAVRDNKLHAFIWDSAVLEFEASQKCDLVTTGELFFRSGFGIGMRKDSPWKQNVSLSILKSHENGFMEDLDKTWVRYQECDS

For `CC(CN(C)C)CN1c2ccccc2CCc2ccccc21` (centres unmarked) [trimipramine], the affinity on NMDA NR1-1b S1S2 domain [1], expressed as Kd, was 1090 ± 240 µM. Also, on NMDA NR1-1b S1S2 domain [2], the “Binding to NR1-1b S1S2 by intrinsic tryptophan fluorescence” value is recorded as “binding” and the “λ max of the NR1-1b drug bound complex” value came out at 327.27 nm. This molecule also had a K sv at NMDA NR1-1b S1S2 domain [3] of 3.02 M⁻¹. The “ANS emission spectrum of the NR1-1b S1S2 complex versus ANS bound to apo S1S2 (binding)” value at NMDA NR1-1b S1S2 domain [4] was “significantly different”.

With `CNCCC(Oc1ccc(C(F)(F)F)cc1)c1ccccc1` (centres unmarked) [fluoxetine], at NMDA NR1-1b S1S2 domain [2], the “Binding to NR1-1b S1S2 by intrinsic tryptophan fluorescence” value is on record as “neither of which showed binding”. Also, the “ANS emission spectrum of the NR1-1b S1S2 complex versus ANS bound to apo S1S2 (binding)” value at NMDA NR1-1b S1S2 domain [4] is on record as “confirmed the binding”.

Regarding `CN(C)CCCC1(c2ccc(F)cc2)OCc2cc(C#N)ccc21` (centres unmarked) [citalopram], on NMDA NR1-1b S1S2 domain [2], the “Binding to NR1-1b S1S2 in intrinsic and extrinsic fluorescence assays” value is recorded as “no binding”; the “Binding to NR1-1b S1S2 by intrinsic tryptophan fluorescence” value is “did not”. Moreover, the “Binding to NR1-1b S1S2 in intrinsic and extrinsic fluorescence assays” value on NMDA NR1-1b S1S2 domain [2] (listed as Citalopram) was “no evidence of binding”.

With `COCCCC/C(=N\OCCN)c1ccc(C(F)(F)F)cc1` [fluvoxamine], on NMDA NR1-1b S1S2 domain [2], the “Binding to NR1-1b S1S2 by intrinsic tryptophan fluorescence” value was “binding” and the “λ max of the NR1-1b drug bound complex” value turned out to be 328.57 nm. The K sv on NMDA NR1-1b S1S2 domain [3] worked out at 3.77 M⁻¹. Besides, the “ANS emission spectrum of the NR1-1b S1S2 complex versus ANS bound to apo S1S2 (binding)” value at NMDA NR1-1b S1S2 domain [4] is “significantly different”.

In the case of `CNCCCC12CCC(c3ccccc31)c1ccccc12` [maprotiline], on NMDA NR1-1b S1S2 domain [2], the “Binding to NR1-1b S1S2 by intrinsic tryptophan fluorescence” value is recorded as “binding” and the “λ max of the NR1-1b drug bound complex” value is 322.04 ± 1.83 nm. Moreover, the “λ max of the NR1-1b drug bound complex” value on NMDA NR1-1b S1S2 domain [2] (listed as Maprotiline) was found to be 322.04 nm. Also, the “Change of tryptophan fluorescence emission upon binding” value on NMDA NR1-1b S1S2 domain [2] (intensity versus apo NR1-1b S1S2) was “increases, rather than quenches”. Also, the K sv on NMDA NR1-1b S1S2 domain [3] was 5.92 M⁻¹. Besides, the “ANS emission spectrum of the NR1-1b S1S2 complex versus ANS bound to apo S1S2 (binding)” value at NMDA NR1-1b S1S2 domain [4] is “significantly different”.

`Fc1ccc([C@@H]2CCNC[C@H]2COc2ccc3c(c2)OCO3)cc1` [paroxetine]: on NMDA NR1-1b S1S2 domain [2], the “Binding to NR1-1b S1S2 by intrinsic tryptophan fluorescence” value is reported as “binding” and the “λ max of the NR1-1b drug bound complex” value turned out to be 328.3 nm. This molecule yielded a K sv at NMDA NR1-1b S1S2 domain [3] of 3.06 M⁻¹. The “ANS emission spectrum of the NR1-1b S1S2 complex versus ANS bound to apo S1S2 (binding)” value at NMDA NR1-1b S1S2 domain [4] is reported as “significantly different”.

As for `COc1ccc(C(CN(C)C)C2(O)CCCCC2)cc1` (centres unmarked) [venlafaxine], on NMDA NR1-1b S1S2 domain [2], the “Binding to NR1-1b S1S2 by intrinsic tryptophan fluorescence” value is “did not; also recorded: neither of which showed binding”. Also, at NMDA NR1-1b S1S2 domain [4], the “ANS emission spectrum of the NR1-1b S1S2 complex versus ANS bound to apo S1S2 (binding)” value is recorded as “confirmed the binding”.

For the molecule `CNCCCN1c2ccccc2CCc2ccccc21` [desipramine], at NMDA NR1-1b S1S2 domain [2], the “Binding to NR1-1b S1S2 by intrinsic tryptophan fluorescence” value is “binding” and the “λ max of the NR1-1b drug bound complex” value is reported as 326.77 nm. At NMDA NR1-1b S1S2 domain [3], this molecule came in with a K sv of 2.67 M⁻¹.
